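Cultured in 96-well plates, cells were exposed to test compound for 48 hours across five concentrations. Abbreviation: GI50, concentration required for 50% inhibition of growth.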 Calls of active or inactive are those of the source. Rule as the data show it: active = GI50 up to about 1.1 µM and inactive = higher.
Legend:
Experiment in all cases: inhibition of tumour cell growth, NCI panel, 48 h
HCT-15 = tested on: HCT-15
KM-20L2 = tested on: KM-20L2
HCC 2998 = tested on: HCC 2998
SW-620 = tested on: SW-620
UACC-257 = tested on: UACC-257
OVCAR-8 = tested on: OVCAR-8
DLD-1 = tested on: DLD-1
Malme-3M = tested on: Malme-3M
OVCAR-3 = tested on: OVCAR-3
HT-29 = tested on: HT-29
DMS-273 = tested on: DMS-273
EKVX = tested on: EKVX
SK-MEL-28 = tested on: SK-MEL-28
COLO 205 = tested on: COLO 205
NCI-H522 = tested on: NCI-H522
SNB-19 = tested on: SNB-19
Hs-578T = tested on: Hs-578T
MDA-MB-435 = tested on: MDA-MB-435
MDA-MB-231 = tested on: MDA-MB-231
NCI/ADR-RES = tested on: NCI/ADR-RES

| Structure (SMILES) | GI50 (HCT-15) [µM] | GI50 (KM-20L2) | GI50 (HCC 2998) | GI50 (SW-620) | GI50 (UACC-257) | GI50 (OVCAR-8) | GI50 (DLD-1) | GI50 (Malme-3M) | GI50 (OVCAR-3) | GI50 (HT-29) | GI50 (DMS-273) | GI50 (EKVX) | GI50 (SK-MEL-28) | GI50 (COLO 205) | GI50 (NCI-H522) | GI50 (SNB-19) | GI50 (Hs-578T) | GI50 (MDA-MB-435) | GI50 (MDA-MB-231) | GI50 (NCI/ADR-RES) |
| --- | --- | --- | --- | --- | --- | --- | --- | --- | --- | --- | --- | --- | --- | --- | --- | --- | --- | --- | --- | --- |
| O=P(Nc1cccc(Cl)c1)(Oc1ccccc1)N(CCCl)CCCl (configuration not stated) | 13.5 | 13.3 µM (inactive) | 14.8 µM (inactive) | 16.7 µM (inactive) | 14.1 µM (inactive) | 17 µM (inactive) | 14.4 µM (inactive) | 14.9 µM (inactive) | 14.2 µM (inactive) | 14.8 µM (inactive) | 13.6 µM (inactive) | 17.7 µM (inactive) | 16.6 µM (inactive) | 15.9 µM (inactive) | 99.5 µM (inactive) |  |  |  |  |  |
| O=C(Nc1ccccc1)C(=O)C(C(=O)c1ccccc1F)C1OC(=O)c2ccccc21 (configuration not stated) | 22.9 | 33.6 µM (inactive) | 30.3 µM (inactive) | 41.9 µM (inactive) | 66.5 µM (inactive) | 19.5 µM (inactive) | 41.9 µM (inactive) |  |  | 37.9 µM (inactive) | 31.3 µM (inactive) | 35 µM (inactive) | 40.6 µM (inactive) | 22.4 µM (inactive) | 21.5 µM (inactive) | 27.5 µM (inactive) |  |  |  |  |
| Cc1cc(N(CCC#N)CCC#N)ccc1/N=N/c1cccc(C(=O)O)c1 | > 100 |  | > 100 µM (inactive) | > 100 µM (inactive) | > 100 µM (inactive) | > 100 µM (inactive) | > 100 µM (inactive) | 83 µM (inactive) | 56 µM (inactive) | > 100 µM (inactive) | > 100 µM (inactive) | > 100 µM (inactive) | 97.7 µM (inactive) | > 100 µM (inactive) | 38.8 µM (inactive) |  |  |  |  |  |
| CS/C(=N\c1ccccc1)N(c1ccccc1)c1nc(=[N+](C)C)ss1.[O-][Cl+3]([O-])([O-])[O-] | 2.26 | 1.06 µM (active) | 5.35 µM (inactive) | 1.36 µM (inactive) | 2.05 µM (inactive) | 2.44 µM (inactive) |  | 2.79 µM (inactive) | 1.66 µM (inactive) | 0.034 µM (active) | 0.166 µM (active) | 15.3 µM (inactive) | 1.14 µM (inactive) | 0.0647 µM (active) | 0.353 µM (active) | 2.22 µM (inactive) |  |  |  |  |
| O=C(c1ccc(O)cc1O)C1C(c2ccc(O)cc2)OC(c2ccc(O)cc2)C1C(=O)c1ccc(O)cc1O (configuration not stated) |  | 71 µM (inactive) | 13.8 µM (inactive) | 30.6 µM (inactive) | 20.5 µM (inactive) | 21.8 µM (inactive) | 44.1 µM (inactive) | 14.2 µM (inactive) | 18.7 µM (inactive) | 34.2 µM (inactive) | 16 µM (inactive) | 21.2 µM (inactive) | 19.4 µM (inactive) |  | 16.5 µM (inactive) | 20.6 µM (inactive) |  |  |  |  |
| Clc1ccc2c(Cl)nc(-c3ccccc3)nc2c1 |  | 25.6 µM (inactive) | 34.8 µM (inactive) | 33.9 µM (inactive) | 26.2 µM (inactive) | 34 µM (inactive) | 27.6 µM (inactive) | 24.3 µM (inactive) | 17.2 µM (inactive) | 26.4 µM (inactive) | 36.7 µM (inactive) | 11.4 µM (inactive) | 32.2 µM (inactive) | 41.2 µM (inactive) |  | 35.6 µM (inactive) |  |  |  |  |
| CCOC(=O)CC(=O)ON(C)C(=O)Cc1ccccc1 | > 100 | > 100 µM (inactive) |  | > 100 µM (inactive) | > 100 µM (inactive) | > 100 µM (inactive) | > 100 µM (inactive) | > 100 µM (inactive) | > 100 µM (inactive) | > 100 µM (inactive) |  | > 100 µM (inactive) |  | > 100 µM (inactive) | > 100 µM (inactive) | > 100 µM (inactive) |  |  |  |  |
| COc1ccc(C2Oc3cc(OC)c(O)cc3[C@@H]2C)cc1 (some centres not stated) | 16.5 | 49.5 µM (inactive) | 57.5 µM (inactive) | 17.1 µM (inactive) | 44.6 µM (inactive) | 23.2 µM (inactive) | 19.9 µM (inactive) | 78 µM (inactive) | 26.5 µM (inactive) | 40.7 µM (inactive) | 29.4 µM (inactive) | 56.4 µM (inactive) | 56.8 µM (inactive) | > 100 µM (inactive) | 16.5 µM (inactive) | 1.87 µM (inactive) |  |  |  |  |
| Cc1ccc2c(c1CCCC(C)(C)O)C(=O)C(O)=C(C(C)C)C2=O | 41.9 | > 100 µM (inactive) | > 100 µM (inactive) | > 100 µM (inactive) |  | 62.5 µM (inactive) | > 100 µM (inactive) | > 100 µM (inactive) | 66.7 µM (inactive) | > 100 µM (inactive) | 95.5 µM (inactive) | 47.2 µM (inactive) | > 100 µM (inactive) | > 100 µM (inactive) | > 100 µM (inactive) | > 100 µM (inactive) |  |  |  |  |
| C[P+](C)(C)c1ccccc1 | > 100 | > 100 µM (inactive) | > 100 µM (inactive) | > 100 µM (inactive) | > 100 µM (inactive) | > 100 µM (inactive) | > 100 µM (inactive) | > 100 µM (inactive) | > 100 µM (inactive) | > 100 µM (inactive) | > 100 µM (inactive) | > 100 µM (inactive) | > 100 µM (inactive) | > 100 µM (inactive) |  | > 100 µM (inactive) |  |  |  |  |
| Cn1c(=O)n(CC2CS2)c2ccccc21 (configuration not stated) | > 100 | > 100 µM (inactive) | > 100 µM (inactive) | > 100 µM (inactive) |  | > 10 µM (inactive) | > 100 µM (inactive) | > 100 µM (inactive) | > 100 µM (inactive) | > 100 µM (inactive) | > 100 µM (inactive) | > 100 µM (inactive) | > 100 µM (inactive) | > 100 µM (inactive) | > 100 µM (inactive) | > 100 µM (inactive) |  |  |  |  |
| CCOC(=O)[C@H]1Nc2ccc(Cl)cc2[C@H]2OCC[C@@H]12 | > 100 | > 100 µM (inactive) | > 100 µM (inactive) | > 100 µM (inactive) | > 100 µM (inactive) | > 100 µM (inactive) | > 100 µM (inactive) | > 100 µM (inactive) | > 100 µM (inactive) | > 100 µM (inactive) | > 100 µM (inactive) | > 100 µM (inactive) | > 100 µM (inactive) | > 100 µM (inactive) | > 100 µM (inactive) | > 100 µM (inactive) |  |  |  |  |
| COC(=O)C(Cc1nc2ccccc2nc1O)C(=O)C(=O)Nc1ccc(F)cc1 (configuration not stated) | > 100 | > 100 µM (inactive) | > 100 µM (inactive) | 21.9 µM (inactive) | > 100 µM (inactive) | 20 µM (inactive) | 32.9 µM (inactive) | 28.8 µM (inactive) | 40.6 µM (inactive) | 42.6 µM (inactive) | 48.1 µM (inactive) | > 100 µM (inactive) | 27.4 µM (inactive) | 37.9 µM (inactive) | 10.3 µM (inactive) | > 100 µM (inactive) |  |  |  |  |
| CC1(n2nc(-c3ccccc3)n(-c3ccccc3)c2=O)CSC1 | > 100 | > 100 µM (inactive) | > 100 µM (inactive) | > 100 µM (inactive) | > 100 µM (inactive) | > 100 µM (inactive) | > 100 µM (inactive) |  |  | > 100 µM (inactive) | 82.4 µM (inactive) | > 100 µM (inactive) | > 100 µM (inactive) | > 100 µM (inactive) | > 100 µM (inactive) | > 100 µM (inactive) |  |  |  |  |
| CCN(CC)c1ccc(C2SCC(=O)N2c2ccc(NC(=O)c3ccc(N4C(=O)CSC4c4ccc(N(CC)CC)cc4)cc3)cc2)cc1 (configuration not stated) | > 100 |  | > 100 µM (inactive) | > 100 µM (inactive) | > 100 µM (inactive) | > 100 µM (inactive) |  | > 100 µM (inactive) | 71.4 µM (inactive) | 75 µM (inactive) |  | > 100 µM (inactive) | > 100 µM (inactive) | > 100 µM (inactive) | > 100 µM (inactive) | > 100 µM (inactive) | > 100 µM (inactive) | > 100 µM (inactive) | > 100 µM (inactive) | > 100 µM (inactive) |
| Nc1cc(Cl)cc2cc(Cl)cnc12 | > 100 |  | > 100 µM (inactive) | > 100 µM (inactive) | > 100 µM (inactive) | > 100 µM (inactive) |  | > 100 µM (inactive) | > 100 µM (inactive) | > 100 µM (inactive) |  | 39.9 µM (inactive) | > 100 µM (inactive) | > 100 µM (inactive) | 57 µM (inactive) | > 100 µM (inactive) | 89.7 µM (inactive) | > 100 µM (inactive) | > 100 µM (inactive) | > 100 µM (inactive) |
| COc1cc(OC)c(C#N)c(OC)c1C |  | > 100 µM (inactive) |  | > 100 µM (inactive) | > 100 µM (inactive) | > 100 µM (inactive) | > 100 µM (inactive) | > 100 µM (inactive) |  | > 100 µM (inactive) | > 100 µM (inactive) | > 100 µM (inactive) | > 100 µM (inactive) |  |  | > 100 µM (inactive) |  |  |  |  |
| CCOC(OC1=C(C#N)CCCC1)C(CC)[Se]c1ccccc1[N+](=O)[O-] (configuration not stated) | 18.5 | 17.2 µM (inactive) | 17.7 µM (inactive) |  | > 100 µM (inactive) | 24 µM (inactive) | 17.9 µM (inactive) | 22.8 µM (inactive) | 26.5 µM (inactive) | 16.8 µM (inactive) | 20.9 µM (inactive) | 30.8 µM (inactive) | 34 µM (inactive) | 29.6 µM (inactive) | 16.3 µM (inactive) | 29 µM (inactive) |  |  |  |  |
| COc1ccc(/C(Cl)=C(\CN(C)C)c2ccc(OC)c(OC)c2)cc1OC.[B] | > 100 | > 100 µM (inactive) | > 100 µM (inactive) | > 100 µM (inactive) | > 100 µM (inactive) | > 100 µM (inactive) | > 100 µM (inactive) |  |  | > 100 µM (inactive) | 2.34 µM (inactive) | > 100 µM (inactive) |  |  |  | 17 µM (inactive) |  |  |  |  |
